The values below are quoted from earlier work in patent US7705031B2 (priority 2003, dated 2010).

As usually defined, the IC50 is the midpoint of a concentration-inhibition curve.

For data set [1], the system named is neuropathic pain. To be noted: human, in vivo.
Data set [2] deals with NaV1.3 (Homo sapiens, UniProt Q9NY46). To be noted: read-out: TTX IC50.
Chain of NaV1.3 (Q9NY46 whole entry, looked up): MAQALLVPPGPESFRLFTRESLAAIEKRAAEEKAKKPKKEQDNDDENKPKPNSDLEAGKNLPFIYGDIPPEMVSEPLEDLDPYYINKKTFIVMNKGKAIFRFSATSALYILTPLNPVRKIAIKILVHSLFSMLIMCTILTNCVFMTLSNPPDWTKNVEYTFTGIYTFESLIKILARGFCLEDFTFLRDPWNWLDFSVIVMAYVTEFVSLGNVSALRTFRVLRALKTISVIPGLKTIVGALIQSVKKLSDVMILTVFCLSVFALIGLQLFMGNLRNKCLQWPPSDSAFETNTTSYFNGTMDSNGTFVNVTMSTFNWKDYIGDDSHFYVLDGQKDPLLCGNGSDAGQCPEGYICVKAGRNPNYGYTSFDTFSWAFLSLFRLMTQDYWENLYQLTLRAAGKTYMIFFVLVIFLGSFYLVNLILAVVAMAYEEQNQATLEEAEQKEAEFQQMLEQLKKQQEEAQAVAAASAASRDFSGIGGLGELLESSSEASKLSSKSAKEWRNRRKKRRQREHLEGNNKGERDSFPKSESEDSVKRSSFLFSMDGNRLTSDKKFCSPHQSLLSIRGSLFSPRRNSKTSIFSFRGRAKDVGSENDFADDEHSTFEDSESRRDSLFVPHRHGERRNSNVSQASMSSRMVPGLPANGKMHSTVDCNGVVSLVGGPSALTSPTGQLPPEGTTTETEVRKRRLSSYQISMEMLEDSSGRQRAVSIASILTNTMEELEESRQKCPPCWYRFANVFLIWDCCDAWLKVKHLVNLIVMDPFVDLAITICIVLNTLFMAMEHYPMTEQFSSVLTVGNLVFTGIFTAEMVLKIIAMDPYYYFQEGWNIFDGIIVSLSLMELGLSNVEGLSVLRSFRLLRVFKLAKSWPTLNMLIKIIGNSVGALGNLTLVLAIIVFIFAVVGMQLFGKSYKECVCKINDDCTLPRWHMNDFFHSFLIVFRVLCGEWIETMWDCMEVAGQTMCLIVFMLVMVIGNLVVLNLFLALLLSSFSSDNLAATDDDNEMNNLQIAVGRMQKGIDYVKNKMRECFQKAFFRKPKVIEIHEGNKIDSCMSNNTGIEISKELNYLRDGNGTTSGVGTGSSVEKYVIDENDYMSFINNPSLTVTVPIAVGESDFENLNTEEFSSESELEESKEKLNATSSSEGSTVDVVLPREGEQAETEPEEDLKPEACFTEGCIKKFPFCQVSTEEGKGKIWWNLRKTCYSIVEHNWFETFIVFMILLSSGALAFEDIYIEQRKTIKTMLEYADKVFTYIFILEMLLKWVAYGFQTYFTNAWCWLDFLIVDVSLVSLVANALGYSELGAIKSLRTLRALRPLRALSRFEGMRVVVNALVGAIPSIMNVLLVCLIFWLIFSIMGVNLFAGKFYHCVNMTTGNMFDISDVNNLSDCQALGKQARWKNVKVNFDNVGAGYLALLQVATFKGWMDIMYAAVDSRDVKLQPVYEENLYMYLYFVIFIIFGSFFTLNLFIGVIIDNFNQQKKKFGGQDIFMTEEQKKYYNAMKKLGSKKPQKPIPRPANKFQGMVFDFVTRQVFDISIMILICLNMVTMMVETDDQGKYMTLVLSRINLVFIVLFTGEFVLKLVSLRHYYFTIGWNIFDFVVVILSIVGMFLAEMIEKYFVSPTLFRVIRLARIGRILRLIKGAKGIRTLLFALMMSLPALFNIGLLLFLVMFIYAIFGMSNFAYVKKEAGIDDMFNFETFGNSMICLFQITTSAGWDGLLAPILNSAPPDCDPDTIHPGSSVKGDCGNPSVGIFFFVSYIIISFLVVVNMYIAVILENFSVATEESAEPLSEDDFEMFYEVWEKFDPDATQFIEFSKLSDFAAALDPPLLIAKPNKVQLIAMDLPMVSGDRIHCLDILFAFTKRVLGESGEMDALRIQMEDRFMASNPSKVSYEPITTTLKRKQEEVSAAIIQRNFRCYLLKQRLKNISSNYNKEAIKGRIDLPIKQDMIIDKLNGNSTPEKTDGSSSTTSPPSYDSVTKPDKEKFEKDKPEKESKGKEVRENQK

As for `NCC1(CC(=O)O)CCCCC1` [Gabapentin], in data set [1], the “share of patients in whom the drug works” value is 60%.
`NC1=N[C@H](O)[C@H]2[C@H]3O[C@]4(O)O[C@@H]([C@@H](O)[C@@]2(N1)[C@@H]4O)[C@]3(O)CO` [TTX, tetrodotoxin]: the IC50 in data set [2] was 0.015 µM.
